Assay results taken from ChEMBL document CHEMBL1137719, “Receptor-based 3D-QSAR studies of checkpoint Wee1 kinase inhibitors” (Eur J Med Chem, 2009).
“And” between values parts separate entries of the source, which are not always exact repeats. Equal entries are not always repeated.

Target: Wee1-like protein kinase (Homo sapiens, UniProt P30291)
Sequence (P30291 whole entry): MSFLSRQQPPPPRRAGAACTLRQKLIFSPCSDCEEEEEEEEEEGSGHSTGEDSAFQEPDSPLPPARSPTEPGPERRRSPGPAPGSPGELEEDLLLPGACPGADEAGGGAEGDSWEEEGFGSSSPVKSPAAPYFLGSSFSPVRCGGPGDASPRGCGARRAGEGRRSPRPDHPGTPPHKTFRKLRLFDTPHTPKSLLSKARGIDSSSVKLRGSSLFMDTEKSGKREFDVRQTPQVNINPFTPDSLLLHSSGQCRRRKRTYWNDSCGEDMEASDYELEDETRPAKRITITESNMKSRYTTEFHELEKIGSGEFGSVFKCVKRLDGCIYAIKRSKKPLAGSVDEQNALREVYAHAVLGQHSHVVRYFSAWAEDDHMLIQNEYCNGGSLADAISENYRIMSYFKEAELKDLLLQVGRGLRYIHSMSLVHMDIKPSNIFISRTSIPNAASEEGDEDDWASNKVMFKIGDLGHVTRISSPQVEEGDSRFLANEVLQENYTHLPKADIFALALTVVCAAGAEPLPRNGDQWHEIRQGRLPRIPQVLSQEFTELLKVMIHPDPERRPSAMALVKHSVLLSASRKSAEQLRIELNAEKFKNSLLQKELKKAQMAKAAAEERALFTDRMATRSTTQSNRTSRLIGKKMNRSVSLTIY

SMILES | IC50
O=C1NC(=O)c2c1c(I)cc1[nH]c3ccc(O)cc3c21 | 2340 nM
NN1C(=O)c2c(-c3ccccc3)cc3[nH]c4ccc(O)cc4c3c2C1=O | 3980 nM
O=C1NC(=O)c2c1c(-c1cccc(O)c1Cl)cc1[nH]c3ccc(O)cc3c21 | 28.2 nM
CSc1ccc(-c2cc3[nH]c4ccc(O)cc4c3c3c2C(=O)NC3=O)cc1 | 31600 nM
CC(=O)c1cccc(-c2cc3[nH]c4ccc(O)cc4c3c3c2C(=O)NC3=O)c1 | 4370 nM
O=C1NC(=O)c2c1c(-c1ccccc1)c(-c1ccccc1)c1[nH]c3ccc(O)cc3c21 | 2340 nM
O=C1NC(=O)c2c1cc(-c1ccccc1)c1[nH]c3ccc(O)cc3c21 | 4070 nM
O=C1NC(=O)c2c1c(-c1ccccc1Cl)cc1c2c2cc(O)c(CCCCn3cccc3)cc2n1CCO | 24 nM
O=C1NC(=O)c2c1c(-c1ccccc1Cl)cc1c2c2c(n1CCO)=CC(OCCCn1cccc1)C(O)(O)C=2 (stereo not given) | 18 nM and 18.2 nM
O=C1NC(=O)c2c1c(-c1ccccc1Cl)cc1c2c2cc(O)c(OCCCn3cccc3)cc2n1CCO | 24 nM
Cn1c2cc(SCCCn3cccc3)c(O)cc2c2c3c(c(-c4ccccc4Cl)cc21)C(=O)NC3=O | 20 nM
O=C1NC(=O)c2c1ccc1c2c2cc(O)ccc2n1CCO | 25.1 nM and 25 nM
Cn1c2cc([S+]([O-])CCCn3cccc3)c(O)cc2c2c3c(c(-c4ccccc4Cl)cc21)C(=O)NC3=O (stereo not given) | 33 nM and 33.1 nM
O=C1NC(=O)c2c1c(-c1c(Cl)cccc1Cl)cc1c2c2cc(O)ccc2n1CCCC(=O)N1CCOCC1 | 64.6 nM and 64 nM
O=C1NC(=O)c2c1c(-c1c(Cl)cccc1Cl)cc1c2c2cc(O)ccc2n1CCCC(=O)n1ccnc1 | 58.9 nM and 59 nM
O=C1NC(=O)c2c1ccc1c2c2cc(O)ccc2n1CCCNc1ccccc1 | 93.3 nM and 93 nM
CN(C)CCNC(=O)CCn1c2ccc(O)cc2c2c3c(ccc21)C(=O)NC3=O | 170 nM
CN1CCN(CCCn2c3ccc(O)cc3c3c4c(ccc32)C(=O)NC4=O)CC1 | 302 nM and 300 nM
NC(=O)CCn1c2ccc(O)cc2c2c3c(ccc21)C(=O)NC3=O | 20.9 nM and 21 nM
O=C1NC(=O)c2c1c(-c1ccc(-c3ccccc3)cc1)cc1[nH]c3ccc(O)cc3c21 | 40000 nM
O=C1NC(=O)c2c1c(-c1ccccc1Cl)cc1[nH]c3cc(OCCCn4cccc4)c(O)cc3c21 | 36 nM and 36.3 nM
O=C1NC(=O)c2c1c(-c1ccccc1Cl)cc1c2c2cc(O)ccc2n1CCC(=O)N1CCOCC1 | 64.6 nM and 64 nM
O=C1NC(=O)c2c1c(-c1c(Cl)cccc1Cl)cc1c2c2cc(O)ccc2n1CCC(=O)N1CCOCC1 | 110 nM

SMILES | IC50
O=C1NC(=O)c2c1c(-c1ccccc1Cl)cc1c2c2cc(O)ccc2n1CC[S+]([O-])n1ccnn1 (stereo not given) | 9 nM and 8.91 nM
O=C1NC(=O)c2c1c(-c1c(Cl)cccc1Cl)cc1c2c2cc(O)ccc2n1CCC(=O)n1ccnc1 | 120 nM
Nc1cc(-c2cc3[nH]c4ccc(O)cc4c3c3c2C(=O)NC3=O)ccc1Cl | 24 nM
O=C1NC(=O)c2c1c(-c1ccccc1Cl)cc1c2c2cc(O)ccc2n1CCS(=O)(=O)n1ccnn1 | 19 nM and 19.1 nM
O=C1NC(=O)c2c1ccc1c2c2cc(O)ccc2n1CCC(=O)n1ccnc1 | 229 nM and 230 nM
O=C1NC(=O)c2c1ccc1c2c2cc(O)ccc2n1CCC(=O)N1CCOCC1 | 140 nM and 141 nM
CN(C)CCCn1c2ccc(O)cc2c2c3c(ccc21)C(=O)NC3=O | 360 nM and 363 nM
Cn1c2cc(CCCCn3cccc3)c(O)cc2c2c3c(c(-c4ccccc4Cl)cc21)C(=O)NC3=O | 36 nM and 36.3 nM
Cn1c2ccc(O)cc2c2c3c(ccc21)C(=O)NC3=O | 141 nM and 140 nM
O=C1NC(=O)c2c1ccc1c2c2cc(O)ccc2n1CCCO | 200 nM
Cn1c2cc(S(=O)(=O)NCCn3cccc3)c(O)cc2c2c3c(c(-c4ccccc4Cl)cc21)C(=O)NC3=O | 46 nM and 45.7 nM
O=C1NC(=O)c2c1c(-c1ccccc1Cl)cc1[nH]c3cc(CCCCn4cccc4)c(O)cc3c21 | 50 nM and 50.1 nM
CNCCCn1c2ccc(O)cc2c2c3c(ccc21)C(=O)NC3=O | 282 nM and 280 nM
O=C1NC(=O)c2c1ccc1c2c2cc(O)ccc2n1CCCC(=O)N1CCOCC1 | 288 nM and 290 nM
CN(C)CCn1c2ccc(O)cc2c2c3c(ccc21)C(=O)NC3=O | 200 nM
O=C(O)CCn1c2ccc(O)cc2c2c3c(ccc21)C(=O)NC3=O | 22.9 nM and 23 nM
O=C1NC(=O)c2c1c(-c1ccccc1Cl)cc1c2c2cc(O)ccc2n1CCC(=O)n1ccnc1 | 91.2 nM and 92 nM
Cn1c2cc(S(=O)(=O)CCCn3cccc3)c(O)cc2c2c3c(c(-c4ccccc4Cl)cc21)C(=O)NC3=O | 160 nM and 158 nM
O=C1NC(=O)c2c1ccc1c2c2cc(O)ccc2n1CCCC(=O)n1ccnc1 | 110 nM
O=C1NC(=O)c2c1c(-c1ccccc1Cl)cc1c2c2cc(O)ccc2n1CCSn1ccnn1 | 24 nM
CS(=O)(=O)c1ccc(-c2cc3[nH]c4ccc(O)cc4c3c3c2C(=O)NC3=O)cc1 | 1120 nM and 1100 nM
O=C1NC(=O)c2c1c(-c1ccccc1Cl)cc1c2c2cc(O)ccc2n1CCCC(=O)n1ccnc1 | 54 nM and 53.7 nM
